# Literature values in patent US20100056645A1, “Chromatographic Media and Chromatographic Equipment Storage Solutions and Use Thereof” (priority 2007, published 2010).
# System: gram positive bacteria
smiles,measurement,value
OCc1ccccc1 [benzyl alcohol],pH of optimal bactericidal activity,< 5.0
